Results from article PMC12680861, “Comparative analysis of LJ-4378 and tirzepatide in mouse models of obesity and weight regain” (Archives of Pharmacal Research, 2025).

What was measured:
[1] = biological target: CYP2D6 (Homo sapiens, UniProt P10635); conditions: microsomes, 10 µM
Procedure: Cytochrome 450 (CYP) enzyme inhibition was evaluated using pooled human liver microsomes (Corning, #452117). […] Substrates and corresponding metabolites for each CYP isoform were as follows: phenacetin and acetaminophen for CYP1A2 (Sigma Aldrich, #77440 and A7085, respectively), diclofenac and 4'-hydroxydiclofenac for CYP2C9 (Sigma Aldrich, D6899; TRC, H825225), S-mephenytoin and 4'-hydroxymephenytoin for CYP2C19 (Sigma Aldrich, UC175; Santacruz, sc210197), dextromethorphan and dextrorphan for CYP2D6 (Sigma Aldrich, #81091 and UC205), and midazolam and 1'-hydroxymidazolam for CYP3A4 (KFDA; Sigma Aldrich, UC430).
Samples were preincubated at 37 °C for 5 min, and the reaction was initiated by the addition of the NADPH regeneration system, followed by incubation at 37 °C for 15 min. The reaction was terminated by adding acetonitrile containing the internal standard, and centrifuged at 15,000 rpm for 5 min at 4 °C. The supernatant was analyzed by LC–MS/MS using a Nexera XR system (Shimadzu, Japan) coupled with a TSQ Vantage mass spectrometer (Thermo, USA). […] Metabolites were quantified in multiple reaction monitoring (MRM) mode with Xcalibur software (version 4.4).
All experiments were performed in duplicate with variability ≤ 15%. The percent activity of each CYP enzyme was calculated based on metabolite formation relative to the no-inhibitor control.

[2] = Plasma stability assay; assay type: in vitro ADME, mouse; conditions: 37 °C, 30 min
Procedure: The plasma stability of LJ-4378 was evaluated using 100% plasma obtained from human (Biochemed, BC22089NCP, sodium citrate), rat (Innovative, IRT-N, sodium citrate), and mouse (Biochemed, 029-APSC-MP, sodium citrate). 10 Μm of LJ-4378 was added to the plasma, and samples were incubated at 37 °C for 0, 30, and 120 min. At each time point, an aliquot of the plasma was removed and mixed with acetonitrile containing the internal standard, chlorpropamide (TRC, C424800). […] The supernatant was injected into the LC–MS/MS system for quantification of the remaining compound. Analysis was performed using a Nexera XR system (Shimadzu, Japan) with a TSQ Vantage mass spectrometer (Thermo, USA). […] Data acquisition was conducted in MRM mode using Xcalibur software (version 4.4). All experiments were performed in duplicate with a deviation within 15%, and the percentage of compound remaining (% Remaining) at each time point was calculated relative to the non-incubated control sample. For quality control, procaine and enalapril (each at 10 μM) were used as reference compounds and were confirmed to fall within acceptable ranges.

[3] = system: plasma protein; experiment: Plasma protein binding, Rapid Equilibrium Dialysis (RED); assay type: in vitro ADME, mouse; conditions: 10 μM, 37 °C, 4 h
Procedure: (§1) The plasma protein binding of LJ-4378 was evaluated using the Rapid Equilibrium Dialysis (RED) method with 100% plasma from human (Biochemed, BC22089NCP), rat (Innovative, IRT-N), and mouse (Biochemed, 029-APSC-MP), all treated with sodium citrate as an anticoagulant. The RED device (ThermoFisher Scientific, #89809) and reusable base plate (ThermoFisher Scientific, #89811) were used with an 8 K MWCO membrane. Test compounds were added to plasma at a final concentration of 10 μM and dialyzed against phosphate-buffered saline (PBS, pH 7.4; Hyclone, #SH30256.01) at 37 °C for 4 h. After incubation, equal volumes of plasma and PBS samples were mixed with blank PBS and blank plasma, respectively, followed by the addition of acetonitrile containing chlorpropamide (TRC, C424800) as the internal standard. […] All measurements were performed in duplicate with a deviation of less than 15% between replicates. The free fraction (% Free) was calculated as (concentration in buffer chamber/concentration in plasma chamber) × 100, and the bound fraction (% Bound) was obtained by subtracting % Free from 100. In cases where measurements were unstable, deviations greater than 15% were allowed.

[4] = system: plasma protein; experiment: as above; assay type: in vitro ADME, rat; conditions: 10 μM, 37 °C, 4 h
Procedure: as §1

[5] = system: plasma protein; experiment: as above; assay type: in vitro ADME, human; conditions: 10 μM, 37 °C, 4 h
Procedure: as §1

[6] = set-up: method as in Jastreboff et al. [2022]; Sattar et al. [2022]; conditions: over 72 weeks; ref Jastreboff et al. [2022]; Sattar et al. [2022]; cited from earlier work

CYP2D6, sequence (P10635 whole entry, canonical isoform): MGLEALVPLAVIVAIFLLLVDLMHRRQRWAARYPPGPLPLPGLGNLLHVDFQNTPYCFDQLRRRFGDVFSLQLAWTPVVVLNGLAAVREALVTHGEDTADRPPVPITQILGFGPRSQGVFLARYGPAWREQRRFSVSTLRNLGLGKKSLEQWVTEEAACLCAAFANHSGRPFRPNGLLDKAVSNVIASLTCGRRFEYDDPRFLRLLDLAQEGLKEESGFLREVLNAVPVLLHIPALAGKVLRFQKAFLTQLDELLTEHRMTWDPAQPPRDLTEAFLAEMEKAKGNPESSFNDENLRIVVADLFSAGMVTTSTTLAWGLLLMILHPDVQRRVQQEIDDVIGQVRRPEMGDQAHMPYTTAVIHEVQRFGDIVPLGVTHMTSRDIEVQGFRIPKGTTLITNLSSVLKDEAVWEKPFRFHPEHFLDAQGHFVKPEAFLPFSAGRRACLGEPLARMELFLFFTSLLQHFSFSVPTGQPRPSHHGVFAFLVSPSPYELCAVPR

Row | Compound | % of control activity CYP2D6 [1] | % Remaining compound, Mouse plasma 30 min [2] | Plasma free fraction (% Free), Mouse [3] | Plasma free fraction (% Free), Rat [4] | Plasma free fraction (% Free), Human [5] | weight reductions in clinical studies [6]
1 | CCCCC#Cc1nc(N)c2ncn([C@@H]3SC[C@@H](O)[C@H]3O)c2n1 [LJ-4378] | 89.3% | 98.4% | 12.7% | 29.7% | 30.1% | –
2 | Tirzepatide [TZP, reference compound] | – | – | – | – | – | up to 22.5%
